Reference: ChEMBL document CHEMBL5696442, “Discovery of type II inhibitors of TGFβ-activated kinase 1 (TAK1) and mitogen-activated protein kinase kinase kinase kinase 2 (MAP4K2)” (J Med Chem, 2015)
Active and inactive are the calls of the source. No cut-off for these calls is given here.

Assays:
[1] = target: Atypical kinase COQ8A, mitochondrial (Homo sapiens) (UniProt Q8NI60); assay: Inhibition of ADCK3 (unknown origin) at 1 uM by Ambit Kinomescan binding assay relative to control
[2] = target: T1, Serine/threonine-protein kinase NLK (Homo sapiens) (UniProt Q9UBE8); assay: Inhibition of NLK (unknown origin) at 1 uM by Ambit Kinomescan binding assay relative to control; values are per cent of control
T1 sequence (whole entry): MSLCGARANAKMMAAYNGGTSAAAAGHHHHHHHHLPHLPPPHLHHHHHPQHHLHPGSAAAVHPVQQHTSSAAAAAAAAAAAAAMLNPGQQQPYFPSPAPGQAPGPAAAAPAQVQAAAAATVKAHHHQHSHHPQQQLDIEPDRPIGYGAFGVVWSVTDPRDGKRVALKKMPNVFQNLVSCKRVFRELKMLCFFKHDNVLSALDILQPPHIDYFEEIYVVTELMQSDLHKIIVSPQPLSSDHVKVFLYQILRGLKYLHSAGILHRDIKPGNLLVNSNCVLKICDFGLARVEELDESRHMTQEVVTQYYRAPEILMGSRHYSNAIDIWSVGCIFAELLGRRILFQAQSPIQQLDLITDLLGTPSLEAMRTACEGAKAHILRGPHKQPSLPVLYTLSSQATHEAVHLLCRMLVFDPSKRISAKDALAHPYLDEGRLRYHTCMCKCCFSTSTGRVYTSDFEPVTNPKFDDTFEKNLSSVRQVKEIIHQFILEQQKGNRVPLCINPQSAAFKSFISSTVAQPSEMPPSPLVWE

[3] = target: T2, Serine/threonine-protein kinase Chk1 (Homo sapiens) (UniProt O14757); assay: Inhibition of CHK1 Lys2 labeling site harbouring DIKPENLLLDERDNLK in human A-375 cells at 5 uM by KiNativ Profiling analysis relative to control; type: cell-based
T2 sequence (whole entry): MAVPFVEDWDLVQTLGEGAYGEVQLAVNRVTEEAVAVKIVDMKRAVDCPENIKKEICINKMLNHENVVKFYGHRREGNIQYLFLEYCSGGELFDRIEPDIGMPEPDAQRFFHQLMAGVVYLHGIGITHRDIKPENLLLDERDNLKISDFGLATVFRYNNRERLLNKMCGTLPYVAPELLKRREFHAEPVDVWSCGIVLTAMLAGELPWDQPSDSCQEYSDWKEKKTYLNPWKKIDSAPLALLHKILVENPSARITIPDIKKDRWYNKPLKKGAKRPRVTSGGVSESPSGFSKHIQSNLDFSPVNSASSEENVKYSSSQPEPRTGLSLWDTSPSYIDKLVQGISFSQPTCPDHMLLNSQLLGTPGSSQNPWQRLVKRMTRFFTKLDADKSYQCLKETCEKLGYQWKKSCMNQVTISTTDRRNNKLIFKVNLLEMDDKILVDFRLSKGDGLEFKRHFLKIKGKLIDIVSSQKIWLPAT

[4] = target: T3, Phosphatidylinositol 5-phosphate 4-kinase type-2 gamma (Homo sapiens) (UniProt Q8TBX8); assay: Inhibition of PIP5K2C ATP labeling site harbouring VKELPTLKDMDFLNK in human Huh-7 cells at 10 uM by KiNativ Profiling analysis relative to control; type: cell-based
T3 sequence (whole entry): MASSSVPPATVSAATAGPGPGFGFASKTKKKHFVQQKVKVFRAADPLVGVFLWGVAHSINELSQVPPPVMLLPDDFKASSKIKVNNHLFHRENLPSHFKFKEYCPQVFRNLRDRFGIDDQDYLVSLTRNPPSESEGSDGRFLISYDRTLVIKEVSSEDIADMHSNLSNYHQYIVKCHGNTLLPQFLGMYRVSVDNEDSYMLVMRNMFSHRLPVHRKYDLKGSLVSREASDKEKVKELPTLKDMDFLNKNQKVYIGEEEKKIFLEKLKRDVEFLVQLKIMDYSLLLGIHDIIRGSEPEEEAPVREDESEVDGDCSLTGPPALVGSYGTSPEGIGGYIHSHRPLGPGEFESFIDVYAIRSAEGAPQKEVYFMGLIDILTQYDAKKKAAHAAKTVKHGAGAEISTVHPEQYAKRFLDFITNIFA

[5] = target: Phosphatidylinositol 4,5-bisphosphate 3-kinase catalytic subunit gamma isoform (Homo sapiens) (UniProt P48736); assay: Inhibition of PIK3CG (unknown origin) at 10 uM by Ambit Kinomescan binding assay
[6] = target: Ephrin type-A receptor 8 (Homo sapiens) (UniProt P29322); assay: Inhibition of EPHA8 (unknown origin) at 10 uM by Ambit Kinomescan binding assay relative to control
[7] = target: T4, Serine/threonine-protein kinase ULK3 (Homo sapiens) (UniProt Q6PHR2); assay: Inhibition of ULK3 Lys2 labeling site in human Huh-7 cell lysate at 1 uM by KiNativ Profiling analysis relative to control; type: subcellular
T4 sequence (whole entry): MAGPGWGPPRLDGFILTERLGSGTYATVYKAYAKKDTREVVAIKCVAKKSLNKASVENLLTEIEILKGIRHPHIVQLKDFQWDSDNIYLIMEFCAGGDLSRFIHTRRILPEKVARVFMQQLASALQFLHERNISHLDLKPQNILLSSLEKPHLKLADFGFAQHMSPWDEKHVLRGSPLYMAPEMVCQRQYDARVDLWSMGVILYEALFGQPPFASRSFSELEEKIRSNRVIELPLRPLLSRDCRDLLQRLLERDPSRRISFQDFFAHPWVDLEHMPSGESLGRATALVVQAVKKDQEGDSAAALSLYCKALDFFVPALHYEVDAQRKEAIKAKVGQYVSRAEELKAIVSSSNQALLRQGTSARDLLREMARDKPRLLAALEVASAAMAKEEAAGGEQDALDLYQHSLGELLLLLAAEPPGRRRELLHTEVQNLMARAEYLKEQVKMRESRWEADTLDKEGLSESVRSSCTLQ

[8] = target: Casein kinase I isoform delta (Homo sapiens) (UniProt P48730); assay: Inhibition of CK1d Lys2 labeling site in human Huh-7 cells at 1 uM by KiNativ Profiling analysis relative to control; type: cell-based
[9] = target: Casein kinase I isoform alpha (Homo sapiens) (UniProt P48729); assay: Inhibition of CK1alpha Lys2 labeling site in human Huh-7 cell lysate at 1 uM by KiNativ Profiling analysis relative to control; type: subcellular
Sequence of Casein kinase I isoform alpha (Homo sapiens) (P48729 2-337 limits assumed): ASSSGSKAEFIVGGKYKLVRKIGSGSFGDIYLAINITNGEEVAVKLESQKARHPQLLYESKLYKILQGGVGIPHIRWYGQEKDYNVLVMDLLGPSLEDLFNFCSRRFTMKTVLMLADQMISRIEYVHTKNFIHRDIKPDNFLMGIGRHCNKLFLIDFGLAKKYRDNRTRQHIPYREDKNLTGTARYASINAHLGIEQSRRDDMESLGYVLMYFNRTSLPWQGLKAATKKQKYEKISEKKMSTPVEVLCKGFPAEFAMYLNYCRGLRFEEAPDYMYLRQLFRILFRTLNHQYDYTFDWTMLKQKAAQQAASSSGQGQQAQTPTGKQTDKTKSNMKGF

Sequence of Phosphatidylinositol 4,5-bisphosphate 3-kinase catalytic subunit gamma isoform (Homo sapiens) (P48736 whole entry, looked up, canonical isoform): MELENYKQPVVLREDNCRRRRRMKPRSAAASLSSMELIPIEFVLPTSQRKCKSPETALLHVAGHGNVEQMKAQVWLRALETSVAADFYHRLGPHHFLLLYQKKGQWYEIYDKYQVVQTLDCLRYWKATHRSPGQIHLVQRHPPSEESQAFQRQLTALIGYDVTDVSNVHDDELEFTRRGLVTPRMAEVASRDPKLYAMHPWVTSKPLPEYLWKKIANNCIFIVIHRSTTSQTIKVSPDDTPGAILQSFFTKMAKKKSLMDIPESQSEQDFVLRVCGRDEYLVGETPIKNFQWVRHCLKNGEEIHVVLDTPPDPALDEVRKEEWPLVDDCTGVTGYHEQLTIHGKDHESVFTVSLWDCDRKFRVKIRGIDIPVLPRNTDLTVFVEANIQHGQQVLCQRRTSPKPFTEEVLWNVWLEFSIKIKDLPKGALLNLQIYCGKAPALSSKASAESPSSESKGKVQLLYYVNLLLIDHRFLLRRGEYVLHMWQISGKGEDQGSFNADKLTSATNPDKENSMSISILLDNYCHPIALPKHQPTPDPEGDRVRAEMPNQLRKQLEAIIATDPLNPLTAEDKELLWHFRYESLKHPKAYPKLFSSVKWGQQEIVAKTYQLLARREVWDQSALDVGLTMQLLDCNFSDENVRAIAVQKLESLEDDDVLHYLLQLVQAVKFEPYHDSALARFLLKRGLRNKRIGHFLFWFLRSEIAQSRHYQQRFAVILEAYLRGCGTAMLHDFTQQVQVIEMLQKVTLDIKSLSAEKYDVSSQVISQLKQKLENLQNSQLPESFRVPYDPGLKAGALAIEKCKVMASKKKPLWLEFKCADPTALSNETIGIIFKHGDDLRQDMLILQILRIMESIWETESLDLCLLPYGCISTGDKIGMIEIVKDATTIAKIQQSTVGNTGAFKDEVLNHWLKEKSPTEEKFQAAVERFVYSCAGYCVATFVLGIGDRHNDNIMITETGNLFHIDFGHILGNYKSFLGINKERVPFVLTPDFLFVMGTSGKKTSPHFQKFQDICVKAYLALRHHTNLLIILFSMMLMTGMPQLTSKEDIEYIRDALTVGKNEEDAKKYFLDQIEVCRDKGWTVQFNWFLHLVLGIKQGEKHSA
Sequence of Atypical kinase COQ8A, mitochondrial (Homo sapiens) (Q8NI60 163-647 limits assumed): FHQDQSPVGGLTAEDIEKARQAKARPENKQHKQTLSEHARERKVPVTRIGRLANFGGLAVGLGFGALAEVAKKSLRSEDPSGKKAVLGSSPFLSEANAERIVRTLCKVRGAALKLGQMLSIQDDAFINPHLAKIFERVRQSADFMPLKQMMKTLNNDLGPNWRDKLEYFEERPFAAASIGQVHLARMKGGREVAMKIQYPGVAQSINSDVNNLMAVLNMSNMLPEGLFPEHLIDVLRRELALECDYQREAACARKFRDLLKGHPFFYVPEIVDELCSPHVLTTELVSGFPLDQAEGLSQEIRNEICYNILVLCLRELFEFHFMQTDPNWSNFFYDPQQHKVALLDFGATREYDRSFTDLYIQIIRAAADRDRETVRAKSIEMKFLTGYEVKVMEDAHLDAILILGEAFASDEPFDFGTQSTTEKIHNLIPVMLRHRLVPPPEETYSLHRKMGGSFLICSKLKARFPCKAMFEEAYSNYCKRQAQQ
Sequence of Casein kinase I isoform delta (Homo sapiens) (P48730 whole entry, looked up, canonical isoform): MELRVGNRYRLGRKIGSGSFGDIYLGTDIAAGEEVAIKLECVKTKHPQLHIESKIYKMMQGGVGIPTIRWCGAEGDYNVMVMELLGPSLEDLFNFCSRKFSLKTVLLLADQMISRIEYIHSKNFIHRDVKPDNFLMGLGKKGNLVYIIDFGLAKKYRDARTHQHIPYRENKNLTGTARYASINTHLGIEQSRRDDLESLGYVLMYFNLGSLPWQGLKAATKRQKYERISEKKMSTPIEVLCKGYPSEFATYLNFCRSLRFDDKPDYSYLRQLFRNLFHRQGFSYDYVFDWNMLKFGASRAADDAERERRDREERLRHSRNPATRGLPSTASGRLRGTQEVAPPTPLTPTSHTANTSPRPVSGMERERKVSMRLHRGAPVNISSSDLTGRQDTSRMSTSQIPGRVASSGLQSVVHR
Sequence of Ephrin type-A receptor 8 (Homo sapiens) (P29322 whole entry): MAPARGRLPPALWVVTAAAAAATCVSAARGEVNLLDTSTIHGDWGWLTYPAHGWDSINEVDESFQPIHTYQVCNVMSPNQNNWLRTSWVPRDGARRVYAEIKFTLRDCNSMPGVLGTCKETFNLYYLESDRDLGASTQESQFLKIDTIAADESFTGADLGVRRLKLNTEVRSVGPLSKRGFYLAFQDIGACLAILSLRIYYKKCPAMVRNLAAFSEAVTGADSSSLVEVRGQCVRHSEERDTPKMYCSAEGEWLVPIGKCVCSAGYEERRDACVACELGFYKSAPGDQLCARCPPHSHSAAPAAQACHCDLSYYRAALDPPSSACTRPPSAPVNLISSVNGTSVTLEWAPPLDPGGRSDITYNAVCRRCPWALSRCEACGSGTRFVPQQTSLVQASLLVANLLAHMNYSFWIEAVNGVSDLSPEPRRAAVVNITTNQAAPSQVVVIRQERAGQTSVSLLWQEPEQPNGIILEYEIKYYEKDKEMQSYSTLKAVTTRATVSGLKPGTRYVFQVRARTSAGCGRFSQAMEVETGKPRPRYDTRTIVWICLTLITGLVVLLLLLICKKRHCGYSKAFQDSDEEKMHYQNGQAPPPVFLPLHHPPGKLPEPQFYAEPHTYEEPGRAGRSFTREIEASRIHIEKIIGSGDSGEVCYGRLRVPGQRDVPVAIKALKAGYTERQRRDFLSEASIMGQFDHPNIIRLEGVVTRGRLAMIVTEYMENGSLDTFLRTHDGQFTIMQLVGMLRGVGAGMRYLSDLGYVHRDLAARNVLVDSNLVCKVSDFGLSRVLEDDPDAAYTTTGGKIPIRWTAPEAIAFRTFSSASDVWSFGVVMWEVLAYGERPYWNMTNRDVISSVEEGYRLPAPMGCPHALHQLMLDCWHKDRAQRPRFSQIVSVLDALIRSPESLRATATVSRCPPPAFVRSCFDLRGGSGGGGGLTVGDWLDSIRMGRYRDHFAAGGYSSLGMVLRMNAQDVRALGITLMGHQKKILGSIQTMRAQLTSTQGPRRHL

CCN1CCN(Cc2ccc(NC(=O)c3ccc(C)c(/C=C/c4cnc5[nH]ccc5c4OC)c3)cc2C(F)(F)F)CC1
inhibition [1]: 100%
residual activity [2]: 18%

CCN1CCN(Cc2ccc(NC(=O)c3ccc(C)c(Oc4ccnc5[nH]ccc45)c3)cc2C(F)(F)F)CC1
inhibition [3]: 32.3%
inhibition [4]: 11.6%
inhibition [5]: inactive
inhibition [6]: 0.1%

CNc1cc(Oc2cc(C(=O)Nc3cc(N4CCN(C)CC4)cc(C(F)(F)F)c3)ccc2C)ncn1
inhibition [7]: 2.3%
inhibition [8]: 39.1%
inhibition [9]: 3.8%
